Laboratory results from patent US20200390755A1, “COMPOUND FOR TREATING NERVOUS SYSTEM DISEASES AND USE THEREOF” (SHAANXI MICOT TECHNOLOGY CO., LTD., priority 2018, published 2020).

molecular target: T1, TrkB receptor (Mus musculus, UniProt P15209); test: Western blotting of p-TrkB and t-TrkB in primary cortical neuron cells; type: cell-based; details: 500 nM, 10 min at 37° C., Vehicle = 100, n = 3
T1 construct: The culture continued until the primary cortical neuron cells mature; endogenous in cells; host or cells: primary cortical neurons from E18 mouse embryos (N171-82Q WT male x B6C3F1/J female)
Protocol: N171-82Q WT male mice were mated with female B6C3F1/J hybrid mice. B6C3F1/J mice 18 days after pregnancy were anesthetized with isoflurane and dissected to remove embryos, which were then placed in a 10 cm Petri dish containing Leibovitz's buffer. The head of the embryo was cut off, and the brain was peeled off to obtain the whole mouse brain, which was then placed in a new 10 cm Petri dish containing Leibovitz's buffer. The neurocortex of the brain was separated and placed in a 15 mL centrifuge tube containing 3 mL Leibovitz's buffer. The centrifuge tube was centrifuged at 1000 rpm for 1 minute, and the Leibovitz's buffer was gently removed from the centrifuge tube, and then 750 μL of 0.25% trypsin-EDTA and 75 μL of 0.1% DNase (2000 U/mL) were added to digest at 37° C. for 15 min. 750 μL of DMEM medium containing 5% FBS was added to stop the digestion. The cells were mixed well, and centrifuged at 1000 rpm for 5 minutes. Trypins/DNase mixture was removed, and 750 μL of Neurobasal medium (B-27, Glutamax, P/S) was added. The cells were mixed by gently pipetting with a pipette for 30 times. The cell suspension was filtered with a 40 µm filter and transferred to another new 50 mL centrifuge tube. 10 μL of the cell suspension was added to 90 μL of DMEM (diluted 10 times), and 10 μL of the liquid mixture was placed on a hemocytometer so that the suspension filled between the cover slip and the counting plate for counting. The cells in the four large grids of the plate were counted, wherein for the cells across the line, only the cells on the left and upper side lines were counted. The following formulas were used:
Number of cells/mL=total number of cells in the four large grids/4×10^4/mL
Total number of cells/mL=total number of cells in the four large grids/4×10^4/mL×dilution factor.
After counting, the cells were diluted with Neurobasal selection medium so that 1 mL of Neurobasal culture medium contained 0.5×10^6 cells.
200 μL of PDL solution previously heated in a 37° C. water bath was added to each well of a 6-well plate, and incubated at 37° C. overnight to allow PDL to evenly coat the well plate. The PDL solution was absorbed and the plate was washed twice with PBS. Before use, the PBS remaining on the plate was absorbed and the cover was opened to dry the plate in a super clean bench. 2 mL of cell suspension was added to each well (37° C., 5% CO2), and the cells were cultured until adherence. The culture medium was replaced and the culture continued for 3 days, and then the growth status of neurons was observed. Every other 3 days, half of the medium was removed and replaced with fresh complete medium. The culture continued until the primary cortical neuron cells mature (usually mature on the 14th day of culture).
After the primary cortical neuron cells have matured, appropriate amount of freshly prepared culture medium was added until final volume in each well was 2 mL. The experiment included a blank control group (Vehicle), a positive control group BDNF (10 ng/mL), a control compound group (500 nM), and 6 test compound groups (500 nM). Three repeats were set for each dose. After incubating at 37° C. for 10 min, the culture solution was discarded and the cells were washed with pre-chilled PBS, and then 40 μL of pre-chilled lysate (RIPA buffer 10 mL and protease and phosphatase inhibitor 100 μL) was added to each well for lysis on ice for 30 min. After lysis, the cell was crushed by ultrasonic cell crusher, centrifuged at 14000 rpm for 20 min at 4° C. The supernatant was transferred to a new 1.5 mL centrifuge tube to extract protein. Western blotting experiments were used to detect the protein levels of (A) p-TrkB and t-TrkB; (B) p-AKT and t-AKT.
The software Sigmaplot 13.0 was used for statistical analysis of the data, and the data of each group was expressed as mean±standard error (x±SEM). […]

T1 sequence (P15209 32-821): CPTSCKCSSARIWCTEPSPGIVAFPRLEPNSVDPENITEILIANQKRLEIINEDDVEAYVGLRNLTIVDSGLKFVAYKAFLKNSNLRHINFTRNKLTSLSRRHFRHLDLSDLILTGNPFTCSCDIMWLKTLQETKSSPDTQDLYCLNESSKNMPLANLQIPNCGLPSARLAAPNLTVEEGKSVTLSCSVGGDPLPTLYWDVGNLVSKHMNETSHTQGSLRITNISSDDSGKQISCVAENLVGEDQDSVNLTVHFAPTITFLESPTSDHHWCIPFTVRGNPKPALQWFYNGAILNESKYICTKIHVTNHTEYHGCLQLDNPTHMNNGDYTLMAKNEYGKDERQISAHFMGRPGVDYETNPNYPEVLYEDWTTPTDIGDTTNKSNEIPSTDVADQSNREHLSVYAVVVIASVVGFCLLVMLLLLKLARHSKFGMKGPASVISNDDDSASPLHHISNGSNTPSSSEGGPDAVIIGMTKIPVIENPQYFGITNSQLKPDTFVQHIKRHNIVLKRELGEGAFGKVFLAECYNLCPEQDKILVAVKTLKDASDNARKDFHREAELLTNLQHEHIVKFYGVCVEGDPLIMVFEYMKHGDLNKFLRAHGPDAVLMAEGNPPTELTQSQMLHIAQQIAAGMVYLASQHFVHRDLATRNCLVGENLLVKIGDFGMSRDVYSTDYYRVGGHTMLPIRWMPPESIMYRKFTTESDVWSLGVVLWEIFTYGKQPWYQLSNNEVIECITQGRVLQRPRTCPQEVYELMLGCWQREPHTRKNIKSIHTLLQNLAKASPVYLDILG

Row | SMILES | Relative intensity of p-TrkB/t-TrkB protein
1 | O=c1cc(-c2ccc(N3CCCCC3)cc2)oc2c(O)c(O)ccc12 [Example 1, 7,8-dihydroxy-2-(4-(piperidin-1-yl)phenyl)-4H-chromen-4-one] | 216.727 ± 8.642
2 | COc1ccc2c(=O)cc(-c3ccc(N4CCCCC4)cc3)oc2c1OC [Example 2, 7,8-dimethoxy-2-(4-(piperidin-1-yl)phenyl)-4H-chromen-4-one] | 206.453 ± 7.574
3 | CN(C)C1CCN(c2ccc(-c3cc(=O)c4ccc(O)c(O)c4o3)cc2)CC1 [Example 3, 2-(4-(4-(dimethylamino)piperidin-1-yl)phenyl)-7,8-dihydroxy-4H-chromen-4-one] | 234.685 ± 14.695
4 | CC1(C)CCN(c2ccc(-c3cc(=O)c4ccc(O)c(O)c4o3)cc2)CC1 [Example 4, 2-(4-(4,4-dimethylpiperidin-1-yl)phenyl)-7,8-dihydroxy-4H-chromen-4-one] | 216.198 ± 8.865
5 | CC1CC(C)CN(c2ccc(-c3cc(=O)c4ccc(O)c(O)c4o3)cc2)C1 (stereo not shown) [Example 5, 2-(4-(3,5-dimethylpiperidin-1-yl)phenyl)-7,8-dihydroxy-4H-chromen-4-one] | 213.254 ± 12.379

tested on: N171-82Q HD mice; test: Immunohistochemical analysis of mHtt protein aggregates in neurocortex (EM48); type: in vivo, mouse; details: 5 mg/kg/d until 25 weeks, six visual fields, n = 3
Protocol: 7-week-old N171-82Q HD male mice were paired with female B6C3F1/J hybrid mice to obtain newborn mice. From 21 days of age, male mice were housed in separate cages. 0.5 cm of mouse tail tissue was removed to extract DNA to determine the genotype of the mouse, such that N171-82Q HD mice and WT mice needed for the experiment were obtained. The mice were randomly divided into WT Vehicle group (normal mice), WT test compound group (administration group of normal mice, 5 mg/kg/d, n=10), HD Vehicle group (blank group of HD mice, n=15), HD test compound group (administration groups 1-5 of HD mice, 5 mg/kg/d, n=10). The test compound was suspended in 1% CMC-Na solution and administered by intragastric administration until the end of the study. The weights of the mice were measured every week. Behavioral tests were performed at 12 weeks, 18 weeks, and 24 weeks of age to investigate motor function. At 20 weeks, 3 samples of tissue from each group were used for western blotting and immunohistochemistry. At 24 weeks, MRI scans were performed. At the end of the study, the effect of the test compound on the mortality of mice was evaluated.
After the behavioral evaluation of the mice in each experimental group was completed and the administration continued until 25 weeks, 3 mice were taken from each group for […]. The right brain isolated from the mice was post-fixed in 4% paraformaldehyde for 24 h. The post-fixed brain tissue was put into 30% sucrose solution to allow it to sink to the bottom, and then brain slices with a thickness of 35 m were cut along the crown with a freezing microtome and placed in DPBS for storage. The stored brain slices were rinsed once with PBS, and blocked with 1 mL goat serum+9 mL PBS+1% TritonX-100 at room temperature on a shaker for 2˜3 h. After blocking, the brain slices were rinsed for 3 times with PBS, 5 min each time. Brain slices were taken out with a small brush and placed in a 24-well plate with primary antibody (anti-Huntingtin, clone mEM48, 1:25, mouse, prepared with blocking solution) for overnight incubation on a shaker in cold room at […]. After washing with PBS, brain slices were placed in a 24-well plate with secondary antibody (555, anti-mouse) for washing, and incubated on a shaker at room temperature for 2 h. After washing with PBS, brain slices was placed in a 24-well plate containing 800 μL DAPI (prepared with PBS, 1:10000) for staining on a shaker at room temperature for 10 min. The brain slices were taken out and placed in a 24-well plate containing 800 μL of PBS for washing on a shaker at room temperature for 10 min. The slide was placed flat on the experimental table with the front side facing upwards, and PBS was added dropwise on the slide to expand the brain slice in PBS. After drying, the mHtt protein was immunofluorescently stained with EM48 antibody (anti-Huntingtin) and photographed for observation.
After immunofluorescence staining of brain tissue, cells with mHtt protein aggregation in six visual fields in the right neurocortex were counted, and the average value was taken for analysis and statistics. A representative image of a neurocortex immunostained with the EM48 antibody for test compound example 1 is shown in FIG. 5, in which the scale bars are 50 μm, and the light-colored dots are cells with mHtt protein aggregation.

Row | SMILES | Average number of cells with mHtt protein aggregation
6 | O=c1cc(-c2ccc(N3CCCCC3)cc2)oc2c(O)c(O)ccc12 [Example 1, 7,8-dihydroxy-2-(4-(piperidin-1-yl)phenyl)-4H-chromen-4-one] | 152.500 ± 7.920
7 | COc1ccc2c(=O)cc(-c3ccc(N4CCCCC4)cc3)oc2c1OC [Example 2, 7,8-dimethoxy-2-(4-(piperidin-1-yl)phenyl)-4H-chromen-4-one] | 158.449 ± 13.260
8 | CN(C)C1CCN(c2ccc(-c3cc(=O)c4ccc(O)c(O)c4o3)cc2)CC1 [Example 3, 2-(4-(4-(dimethylamino)piperidin-1-yl)phenyl)-7,8-dihydroxy-4H-chromen-4-one] | 148.794 ± 10.157
9 | CC1(C)CCN(c2ccc(-c3cc(=O)c4ccc(O)c(O)c4o3)cc2)CC1 [Example 4, 2-(4-(4,4-dimethylpiperidin-1-yl)phenyl)-7,8-dihydroxy-4H-chromen-4-one] | 155.286 ± 9.567
10 | CC1CC(C)CN(c2ccc(-c3cc(=O)c4ccc(O)c(O)c4o3)cc2)C1 (stereo not shown) [Example 5, 2-(4-(3,5-dimethylpiperidin-1-yl)phenyl)-7,8-dihydroxy-4H-chromen-4-one] | 151.687 ± 8.365
